Assay results published in patent publication US10351500B2, “Method of using of dihydro-resveratrol or its stilbenoid derivatives and/or chemical variants as antimicrobial agents” (Hong Kong Baptist University, priority 2015, dated 2019).

What was measured:
[1] = system: cerulein-induced acute pancreatitis and associated pulmonary injury; test: cerulein-induced acute pancreatitis in rats, oral dihydro-resveratrol; assay type: in vivo, Sprague-Dawley rats
Description: Among the several established animal models, repetitive intraperitoneal (i.p.) injection of cholecystokinin secretagogue, cerulein, is the most widely used and a highly reproducible method for the production of an experimental acute pancreatitis. Followed by a single shot of lipopolysaccharide (LPS), pulmonary injury characterized by neutrophil sequestration in the lung tissues and increased permeability of the alveolar membrane barrier is often observed as an acute pancreatitis associated complication. For the diagnosis of the onset of acute pancreatitis, bulky leakage of digestive enzymes, namely α-amylase, into the bloodstream is regarded as the principal pathological parameter. For evaluating the severity of acute pancreatitis and the associated pulmonary injury, morphological alterations of organ architecture including interstitial edema, cellular damage, leukocyte infiltration and hemorrhage are characterized as the histological and/or pathological parameters. Besides histological examination, aberrant MPO activity is often measured for assessing the severity of neutrophil-mediated inflammatory condition. Both the local and systemic inflammatory responses can be further confirmed by the high levels of pro-inflammatory cytokines present in the homogenates of affected tissues. Moreover, glutathione depletion, a defense mechanism, is one of the most common parameters for assessing the severity of tissue injury.
Evaluation of biological activities. Sprague-Dawley rats aged 28 days weighing in the range of 70 to 90 g were randomly assigned into 6 groups of 6 to 8 individuals. The rats were housed with an ambient temperature of 23±2° C., a relative humidity of 60 to 80% and a 12-h light/dark cycle. Prior to the experiment, the rats were starved overnight but allowed with free access to water. Experimental acute pancreatitis was induced in the rats by six hourly i.p. injections of cerulein at the supramaximally stimulating dose (50 μg/kg) followed by a single dose of LPS at 7.5 mg/kg 1 h after the last cerulein injection, and this group of rats was designated as the cerulein group. The control group received injections of 0.9% saline instead of cerulein in the same volume and at same time intervals. The treatment groups given with cerulein and oral doses of dihydro-resveratrol (10, 20 or 50 mg/kg) were designated as Cerulein+D-res 10 or 20 or 50 mg/kg. The therapeutic intervention was given 30 minutes after the first cerulein injection for three consecutive hours. Upon scarification, pancreata were immediately removed, weighed, trimmed from fat and fixed in 4% paraformaldehyde-phosphate buffered saline overnight at 4° C. Samples were then processed, embedded in paraffin wax, sectioned and subjected to H&E staining. Levels of TNF-α in pancreatic and pulmonary samples were determined using commercial ELISA kits. Tissue homogenates were subjected to biochemical assays for the evaluation of MPO activity and glutathione content.

[2] = ABTS radical decolorization assay (antioxidant capacity); assay type: biochemical; details: 15 min, 734 nm
[3] = system: human pancreatic ductal adenocarcinoma PANC-1 cell line; test: MTT cell viability assay, PANC-1; assay type: cell-based; details: PANC-1 pancreatic ductal adenocarcinoma, 24 h
Experimental: The human colorectal carcinoma HCT-116 cell line, human pancreatic ductal adenocarcinoma PANC-1 cell line, human melanoma A375 cell line and human embryonic kidney HEK293 cell line were purchased from the American Type Culture Collection. Cells were cultured in high glucose DMEM growth medium supplemented with 10% fetal bovine serum, penicillin and streptomycin (100 U) in a humidified atmosphere of 5% CO2, 95% air at 37° C. Upon the addition of dihydro-resveratrol (D-res) to the HCT-116, PANC-1, A375 or HEK293 cells seeded at a density of 8000 cells per well in a 96-well plate format, the viability of the testing cells was determined 24 h post treatment using the (3-(4,5-dimethylthiazol-2-yl)-2,5-diphenyltetrazolium bromide) tetrazolium (MTT) reduction assay and expressed as growth inhibition of 50% (GI50, Table 6).

[4] = system: Trichophyton mentagrophytes; test: anti-fungal growth inhibition, T. mentagrophytes; assay type: cell-based; details: Trichophyton mentagrophytes, 168 h
Experimental: Evaluation of anti-fungal activity. In a single well of the 96-well microplate, 10 μL of the testing compound is added into 190 μL of growth medium (Difco™ YM) containing an overnight culture of Trichophyton rubrum or Trichophyton mentagrophytes at a density of approximately 5×10^5 CFU. The testing compounds include dihydro-resveratrol and DR1 to DR11. Wells incubated with 10 μL 0.5% DMSO only (i.e. no testing compound) are served as the experimental control of fungal growth whilst those incubated with growth medium only (i.e. no fungi) are served as the negative control. […] The percentage of growth inhibition of T. mentagrophytes by the different concentrations of testing compounds is shown in Table 10 whilst the percentage of growth inhibition of T. rubrum is shown in Table 11. The images of T. mentagrophytes culture are captured post treatment of dihydro-resveratrol (100 μM) and DR8 (100 μM) when compared to the growth of experimental control and negative control (FIG. 30).

[5] = system: Streptococcus mutans; test: anti-bacterial growth inhibition, S. mutans; assay type: cell-based; details: Streptococcus mutans, 10 h
Experimental: (§1) Evaluation of anti-bacterial activity. In a single well of the 96-well microplate, 10 μL of the testing compound is added into 190 μL of growth medium growth medium (BBL™ Brain Heart Infusion) containing an overnight culture of Streptococcus mutans or Streptococcus sobrinus at a density of approximately 5×10^5 CFU. The testing compounds include dihydro-resveratrol and DR1 to DR11. Wells incubated with 10 μL 0.5% DMSO only (i.e. no testing compound) are served as the experimental control of bacterial growth whilst those incubated with growth medium only (i.e. no bacteria) are served as the negative control. […] The percentage of growth inhibition of S. mutans by the different concentrations of testing compounds is shown in Table 12 whereas the percentage of growth inhibition of S. sobrinus is shown in Table 13. The images of S. mutans culture are captured post treatment of dihydro-resveratrol (100 μM) and DR8 (100 μM) when compared to the growth of experimental control and negative control (FIG. 31).

[6] = system: Streptococcus sobrinus; test: anti-bacterial growth inhibition, S. sobrinus; assay type: cell-based; details: Streptococcus sobrinus, 10 h
Experimental: as §1

[7] = read-out: Inhibition rate (25 μM)
[8] = read-out: Inhibition rate (50 μM)
[9] = read-out: Inhibition rate (100 μM)

Oc1ccc(CCc2cc(O)cc(O)c2)cc1 [Dihydro-resveratrol, trans-3,5,4′-trihydroxybibenzyl]
Plasma α-amylase activities (mean) ([1]; Cerulein + D-Res 10 mg (oral 10 mg/kg)): 0.2891 U/μl/minute
Plasma α-amylase activities (mean) ([1]; Cerulein + D-Res 20 mg (oral 20 mg/kg), #p<0.05 vs cerulein group): 0.2498# U/μl/minute
Plasma α-amylase activities (mean) ([1]; Cerulein + D-Res 50 mg (oral 50 mg/kg), #p<0.05 vs cerulein group): 0.2431# U/μl/minute
MPO activities in pancreatic and pulmonary tissues ([1]; oral): significantly reduced
ameliorative effect on reducing pancreatic edema compared with trans-resveratrol ([1]; oral): more promising than that of trans-resveratrol
glutathione level in cerulein-induced pancreata ([1]; oral): significantly suppressed glutathione depletion
levels of TNF-α in pancreatic and pulmonary tissues ([1]; oral, ELISA): significantly reduced
focal expansion of interlobular septae, cytoplasmic shrinkage and leukocyte infiltration in pancreatic parenchyma ([1]; oral, H&E): remarkably reduced
pulmonary wall thickening and hemorrhage in lung tissues ([1]; oral, H&E): significantly improved
pancreatic edema (weight ratio of pancreas to body) ([1]; oral, not less than 20 mg/kg): notably reduced the pancreatic edema
Trolox equivalent (mg), antioxidant capacity [2]: 4969.611 mg
GI50 [3]: 116 ± 3.09 µM
inhibition at 25 µM [4, 7]: 4.52%
inhibition at 50 µM [4, 8]: 15.3%
inhibition at 100 µM [4, 9]: 30.8%
inhibition at 25 µM [5, 7]: 6.32%
inhibition at 50 µM [5, 8]: 2.34%
inhibition at 100 µM [5, 9]: 2.09%
inhibition at 25 µM [6, 7]: 10.7%
inhibition at 50 µM [6, 8]: 8.18%
inhibition at 100 µM [6, 9]: 1.49%
